Results from patent EP1192125B9, “MONO-SUBSTITUTED 3-PROPYL GAMMA-AM[…]” (Warner-Lambert Company LLC, priority 1999, dated 2000).
Where two headings read alike, the source gives them in different places.

Tests used:
Format in all cases: in vivo
DBA/2 mice = test: DBA2 mouse model of anticonvulsant efficacy (sound-induced seizures); set-up: Anticonvulsant % Protect 2 br / Anticonvulsant % Protect 1hr: concentration or dose not given beside the values; conditions: for Anticonvulsant % Protect 2 br / Anticonvulsant % Protect 1hr: Table 1; for responders at 30 mg/kg: Mus musculus
[1] = Anxiolytic activity relative to pregabalin (test model not specified); conditions: 30 mg/kg PO; percent of pregabalin activity
Male Sprague-Dawley rats = test: Carrageenin-induced hyperalgesia, rat paw pressure test; conditions: dosed orally at 30 mg/kg
Method: Male Sprague-Dawley rats (70-90 g) were trained on this apparatus before the test day. Pressure was gradually applied to the hind paw of each rat and nociceptive thresholds were determined as the pressure (g) required to elicit paw withdrawal. […] On the test day, two to three baseline measurements were taken before animals were administered 100 µL of 2% carrageenin by intraplantar injection into the right hind paw.

[2] = 30 mg/kg PO, 1h, read-out: Anticonvulsant % Protect* 1h
[3] = 30 mg/kg PO, 2h, read-out: Anticonvulsant % Protect* 2h

SMILES	responders at 30 mg/kg (DBA/2 mice; [2]) [%]	responders at 30 mg/kg (DBA/2 mice; [3]) [%]	Anxiolytic Activity* % Preg. Act. [1] [%]	other results
CC[C@@H](C)[C@H](CN)CC(=O)O				Anticonvulsant % Protect 2 br (DBA/2 mice): 0%; Anticonvulsant % Protect 1hr (DBA/2 mice): 0%
CC(C)[C@@H](C)C(CN)CC(=O)O (stereo partly drawn)				Anticonvulsant % Protect 2 br (DBA/2 mice): 100%; Anticonvulsant % Protect 1hr (DBA/2 mice): 80%
CCC(CC)C(CN)CC(=O)O (stereo not drawn)				Anticonvulsant % Protect 2 br (DBA/2 mice): 20%; Anticonvulsant % Protect 1hr (DBA/2 mice): 0%
CCC(CC)CC(CN)CC(=O)O (stereo not drawn)				Anticonvulsant % Protect 2 br (DBA/2 mice): 20%; Anticonvulsant % Protect 1hr (DBA/2 mice): 0%
CCC(C)CC(CN)CC(=O)O (stereo not drawn)				Anticonvulsant % Protect 2 br (DBA/2 mice): 100%; Anticonvulsant % Protect 1hr (DBA/2 mice): 60%
CCC(C)CC(CN)CC(=O)O (racemic) [3-Aminomethyl-5-methylheptanoic acid]	60	100	79	
CC(C)C(c1ccccc1)C(CN)CC(=O)O (stereo not drawn) [3-Aminomethyl-5-methyl-4-phenyl-hexanoic acid]	0	0		
CC(Cc1ccccc1)CC(CN)CC(=O)O (stereo not drawn) [3-Aminomethyl-5-methyl-6-phenyl-hexanoic acid]	0	0		
C=CCC(C)CC(CN)CC(=O)O (stereo not drawn) [3-Aminomethyl-5-methyl-oct-7-enoic acid]	0	0		
CCCCCC(C)CC(CN)CC(=O)O (stereo not drawn) [3-Aminomethyl-5-methyldecanoic acid, 3-Aminomethyl-5-methyl-decanoic acid]	0	0		
CCCCC(C)CC(CN)CC(=O)O (stereo not drawn) [3-Aminomethyl-5-methylnonanoic acid, 3-Aminomethyl-5-methyl-nonanoic acid]	40	80		
CCCC(C)CC(CN)CC(=O)O (stereo not drawn) [3-Aminomethyl-5-methyloctanoic acid, 3-Aminomethyl-5-methyl-octanoic acid]	40	100		
CC(CC(CN)CC(=O)O)C(F)(F)F (stereo not drawn) [3-Aminomethyl-6,6,6-trifluoro-5-methyl-hexanoic acid]	0	0		
CCC(C(C)C)C(CN)CC(=O)O (stereo not drawn) [3-aminomethyl-4-isopropyl-hexanoic acid, 3-Aminomethyl-4-isopropyl-hexanoic acid]	0	0		
CCCCC(C(C)C)C(CN)CC(=O)O (stereo not drawn) [3-aminomethyl-4-isopropyl-octanoic acid, 3-Aminomethyl-4-isopropyl-octanoic acid]	0	0		
CC(C)[C@@H](C)[C@H](CN)CC(=O)O [(3R,4R)-3-Aminomethyl-4,5-dimethyl-hexanoic acid]			204	
CC(C)[C@H](C)[C@H](CN)CC(=O)O [(3R,4S)-3-Aminomethyl-4,5-dimethyl-hexanoic acid]			58	
CC(C)[C@@H](C)[C@@H](CN)CC(=O)O [(3S,4R)3-Aminomethyl-4,5-dimethyl-hexanoic acid]			12	Anticonvulsant % Protect* 1h (DBA/2 mice; 30 mg/kg PO, 1h): 20%; Anticonvulsant % Protect* 2h (DBA/2 mice; 30 mg/kg PO, 2h): 20%
CCCCC[C@@H](C)C[C@H](CN)CC(=O)O [(3S,5R)-3-Aminomethyl-5-methyl-decanoic acid]	100	100	105.59	
CC[C@@H](C)C[C@H](CN)CC(=O)O [(3S,5R)-3-Aminomethyl-5-methyl-heptanoic acid]				Anticonvulsant % Protect* 2h (DBA/2 mice; 30 mg/kg PO, 2h): 100%
CCCC[C@@H](C)C[C@H](CN)CC(=O)O.Cl [(3S,5R)-3-Aminomethyl-5-methyl-nonanoic acid hydrochloride]	100	100	125.94	
CCC[C@@H](C)C[C@H](CN)CC(=O)O.Cl [(3S,5R)-3-Aminomethyl-5-methyl-octanoic acid hydrochloride]	100	100	160	
CCCCC[C@H](C)C[C@H](CN)CC(=O)O [(3S,5S)-3-Aminomethyl-5-methyl-decanoic acid]	0	20		
CCC[C@H](C)C[C@H](CN)CC(=O)O [(3S,5S)-3-Aminomethyl-5-methyl-octanoic acid]	0	20	15.6	
CCCC[C@H](C)C[C@H](CN)CC(=O)O [(3S, 5S)-3-Aminomethyl-5-methyl-nonanoic acid]	0	0		
Cl.O=C(O)[C@H]1CNCC12CCCCC2 [(R)-2-Aza-spiro[4.5]decane-4-carboxylic acid hydrochloride]				percent of maximum possible effect (MPE) (Male Sprague-Dawley rats; 1 hour postdose): 53%; percent of maximum possible effect (MPE) (Male Sprague-Dawley rats; 2 hours postdose): 4.6%
CCCC(C)C[C@H](CN)CC(=O)O (stereo partly drawn) [(S)-3-Aminomethyl-5-methyl-octanoic acid]	100	100	135.38	
COCC(C)C[C@H](CN)CC(=O)O (stereo partly drawn) [(S)-3-Aminomethyl-6-methoxy-5-methyl-hexanoic acid]	0	0		
CC(C)C[C@H](CN)CC(=O)O [Pregabalin, (S)-3-(Aminomethyl)-5-methylhexanoic acid, reference compound]		100	100	
CC(C)CC(CN)CC(=O)O (stereo not drawn) [reference compound]				Anticonvulsant % Protect 2 br (DBA/2 mice): 100%
